Earlier results on one substance are cited in patent US20010051164A1, “1-0 ALKYLGLYCEROLS FOR PHARMACEUTICAL OR VETERINARY USE FOR PRESERVING AND/OR IMPROVING SPERM” (priority 1996, published 2001).

This data set has as its system spermatozoons of various animal species and of man.

Take “1-O-alkyl-2-acetyl-sn-glycero-3-phosphocholine [PAF]”: the “power of fertilisation of ovocytes by treated spermatozoons” value (ovocytes of the rabbit and of the mouse) was “increases their power of fertilisation”. Further, the “motor function of the spermatozoons” value (various animal species and man) is on record as “increases the motor function”.
